# Laboratory results from article PMC3763812 (Chemical research in toxicology, 2013).
# Entries after “also recorded” stand apart in the source; their conditions may differ.
# What was measured:
# [1] = system: ds-DNA in DNA/RuPVP/1B1 films (cyt P450 1B1 supersomes); assay: ECL genotoxicity array, DNA/RuPVP/1B1 films; format: biochemical, human; details: 25 μM B[a]P or 50 μM B[ghi]P with NADPH
# [2] = system: DNA in PDDA/supersomes/PDDA/DNA biocolloids (1A1 and 1B1 supersomes); format: biochemical, human; details: 20-mins reaction of B[ghi]P with biocolloid enzyme/DNA reactors
# [3] = system: ds-DNA in DNA/RuPVP/1A2 films (cyt P450 1A2 supersomes); assay: ECL genotoxicity array, DNA/RuPVP/1A2 films; format: biochemical, human; details: 25 μM B[a]P or 50 μM B[ghi]P with NADPH
# DNA [4] = details: in vivo and in vitro; cited from earlier work
# [5] = system: ds-DNA with cyt P4501A1, 1B1 and 1A2 supersomes; details: electro-optical toxicity screening arrays
# mouse skin = details: cited from earlier work
# [6] = with exogenous activation; cited from earlier work
# DNA [7] = details: activated by light without metabolic activation; cited from earlier work
smiles,measurement,setting,value
"c1cc2ccc3ccc4ccc5cccc6c(c1)c2c3c4c56 [B[ghi]P, benzo[ghi]perylene]",Normalized ECL turnover rate (R),[1],34.3 μg^−1•protein•min^−1•mM
same,"Detection of DNA adducts of B[ghi]P 3,4-oxide (mass transitions of Table 3)",[2],no peaks were found
same,Normalized ECL turnover rate (R),[3],23.3 μg^−1•protein•min^−1•mM
same,Binding of active metabolites to DNA,DNA [4],active metabolites can bind to DNA
same,Lower rate of DNA damage by B[ghi]P metabolites than benzo[a]pyrene,[5],3 fold
same,Tumor initiation,mouse skin,not found to initiate tumors; also recorded: negative
same,Mutagenicity in the Ames test,[6],displays mutagenicity
same,DNA damage in Comet assays,DNA [7],yielded DNA damage
